# In patent US11377442B2, “Small molecule agonists and antagonists of NR2F6 activity” (ZANDER THERAPEUTICS, INC., priority 2016, dated 2022):
# Where two headings read alike, the source gives them in different places.
# Assays:
# Format in all cases: cell-based
# NR2F6 = target: T1, NR2F6 (Homo sapiens, UniProt P10588); test: NR2F6 agonist screening, Firefly signal cmpd/DMSO
# T1 construct: expressed in transfected cells; also transient transfection
# T1 sequence (P10588 1-404): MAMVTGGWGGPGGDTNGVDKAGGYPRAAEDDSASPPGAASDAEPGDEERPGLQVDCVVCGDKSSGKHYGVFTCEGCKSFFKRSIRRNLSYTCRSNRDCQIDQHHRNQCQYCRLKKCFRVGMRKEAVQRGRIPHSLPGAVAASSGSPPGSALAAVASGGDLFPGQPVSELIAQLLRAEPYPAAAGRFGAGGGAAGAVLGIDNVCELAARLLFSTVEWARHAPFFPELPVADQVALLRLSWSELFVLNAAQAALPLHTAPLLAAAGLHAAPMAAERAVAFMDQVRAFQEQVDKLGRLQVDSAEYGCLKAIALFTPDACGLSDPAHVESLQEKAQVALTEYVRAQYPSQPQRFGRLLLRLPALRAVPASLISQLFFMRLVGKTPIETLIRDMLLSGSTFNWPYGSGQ
# Renilla = Renilla signal in NR2F6 agonist screening, cmpd/DMSO; conditions: for fold induction at 0.5 µM / fold induction at 2 µM / fold induction at 10 µM / fold induction at 40 µM: Renilla, F4
# ERα = target: T2, ERα (Homo sapiens, UniProt P03372); test: Counterscreening, Firefly signal with ERα transient transfection (Firefly_ERa); conditions: ERα transient transfection, 10 μM
# T2 construct: expressed in transfected cells
# T2 sequence (P03372 1-595): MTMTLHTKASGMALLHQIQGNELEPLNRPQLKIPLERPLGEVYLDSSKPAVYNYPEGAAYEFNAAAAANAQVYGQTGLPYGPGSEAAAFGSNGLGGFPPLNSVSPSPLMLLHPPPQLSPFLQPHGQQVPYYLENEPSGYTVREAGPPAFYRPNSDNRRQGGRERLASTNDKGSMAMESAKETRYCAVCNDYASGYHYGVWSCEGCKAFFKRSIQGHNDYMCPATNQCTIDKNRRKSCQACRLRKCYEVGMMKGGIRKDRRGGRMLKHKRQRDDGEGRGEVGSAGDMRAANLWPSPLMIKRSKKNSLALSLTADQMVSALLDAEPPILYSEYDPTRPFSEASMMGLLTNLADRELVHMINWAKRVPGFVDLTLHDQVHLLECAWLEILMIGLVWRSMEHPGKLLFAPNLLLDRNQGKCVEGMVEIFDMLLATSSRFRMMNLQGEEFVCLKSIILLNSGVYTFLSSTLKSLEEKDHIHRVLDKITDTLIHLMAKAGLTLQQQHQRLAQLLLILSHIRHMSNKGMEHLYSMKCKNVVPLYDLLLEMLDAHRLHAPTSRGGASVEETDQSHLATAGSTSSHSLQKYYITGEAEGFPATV
# Method: The methodology for screening candidate compounds as NR2F6 agonists was as follows: For primary screening, hit criteria was ACT %>DMSO control+5*SD (DSO control) at 10 μM, or any compound with S/B>2. For rescreening, hit criteria was ACT %>DMSO control+3*SD (DSO control) in each replicate at 10 μM. For counterscreening, hit criteria was mean ACT<DMSO control+3*SD (DMSO control) with ERα transient transfection in duplicate at 10 μM.
# Renilla_ERa = test: Renilla signal in ERα counterscreen (Renilla_ERa); conditions: ERα transient transfection, 10 μM
# HEK293 pGL4 = test: Firefly_pGL signal, cmpd/DMSO (pGL4 control cells); conditions: Homo sapiens
# NR2F6 LBD = target: T3, NR2F6 LBD (Homo sapiens, UniProt P10588); test: NR2F6 LBD transient transfection; conditions: LBD
# T3 construct: expressed in transfected cells
# T3 sequence (P10588 165-393 limits assumed): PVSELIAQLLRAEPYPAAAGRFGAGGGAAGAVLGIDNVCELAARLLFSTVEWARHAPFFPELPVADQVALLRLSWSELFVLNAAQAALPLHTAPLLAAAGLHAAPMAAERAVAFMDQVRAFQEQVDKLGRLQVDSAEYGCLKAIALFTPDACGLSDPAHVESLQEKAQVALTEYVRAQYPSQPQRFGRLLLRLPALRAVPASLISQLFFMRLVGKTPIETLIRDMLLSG
# Procedure, shortened: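 LBD-transfected cells treated at 40, 10, 2 and 0.5 μM (4 replicates); cytotoxicity measured in parallel, normalized to DMSO (0%) and zero signal (100%). Higher concentrations excluded where signal loss reflected toxicity.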
# [1] = first set screening, 10 μM, repeat 1
# [2] = first set screening, 10 μM, repeat 2
# [3] = HEK293, 0.5 uM, pGL4, read-out: Firefly pGL4, cmpd/DMSO (mean)
# [4] = HEK293, 2 uM, pGL4, read-out: Firefly pGL4, cmpd/DMSO (mean)
# [5] = HEK293, 10 uM, pGL4, read-out: Firefly pGL4, cmpd/DMSO (mean)
# [6] = HEK293, 40 uM, pGL4, read-out: Firefly pGL4, cmpd/DMSO (mean)
# [7] = HEK293, pGL4, 1% FBS, 0.5 uM, read-out: Firefly, pGL4, 1% FBS, cmpd/DMSO (mean)
# [8] = HEK293, pGL4, 1% FBS, 2 uM, read-out: Firefly, pGL4, 1% FBS, cmpd/DMSO (mean)
# [9] = HEK293, pGL4, 1% FBS, 10 uM, read-out: Firefly, pGL4, 1% FBS, cmpd/DMSO (mean)
# [10] = HEK293, pGL4, 1% FBS, 40 uM, read-out: Firefly, pGL4, 1% FBS, cmpd/DMSO (mean)
# [11] = HEK293, pGL4, 10% FBS, 0.5 uM, read-out: Firefly, pGL4, 10% FBS, cmpd/DMSO (mean)
# [12] = HEK293, pGL4, 10% FBS, 2 uM, read-out: Firefly, pGL4, 10% FBS, cmpd/DMSO (mean)
# [13] = HEK293, pGL4, 10% FBS, 10 uM, read-out: Firefly, pGL4, 10% FBS, cmpd/DMSO (mean)
# [14] = HEK293, pGL4, 10% FBS, 40 uM, read-out: Firefly, pGL4, 10% FBS, cmpd/DMSO (mean)
# [15] = read-out: Renilla, F4, cmpd/DMSO (mean)
# [16] = 1% FBS, read-out: Renilla, F4, 1% FBS, cmpd/DMSO (mean)
# [17] = 10% FBS, read-out: Renilla, F4, 10% FBS, cmpd/DMSO (mean)
compound,measurement,setting,value
Nc1nonc1-c1noc(-c2cccc(COc3ccc(Cl)cc3Cl)c2)n1 [Compound 23],"Firefly, cmpd/DMSO repeat 1",NR2F6; [1],3.0
same,"Firefly, cmpd/DMSO repeat 2",NR2F6; [2],1.9
same,"Renilla, cmpd/DMSO repeat 1",Renilla; [1],4.6
same,"Renilla, cmpd/DMSO repeat 2",Renilla; [2],3.4
same,"Firefly_ERa, cmpd/DMSO repeat 1",ERα; repeat 1,1.8
same,"Firefly_ERa, cmpd/DMSO repeat 2",ERα; repeat 2,1.8
same,"Renilla_ERa, cmpd/DMSO repeat 1",Renilla_ERa; repeat 1,1.1
same,"Renilla_ERa, cmpd/DMSO repeat 2",Renilla_ERa; repeat 2,1.2
COc1ccc(CCN[C@H]2CS(=O)(=O)C[C@@H]2S(=O)(=O)c2ccc(Cl)cc2)cc1OC [Compound D129],"Firefly F4, cmpd/DMSO (mean)",NR2F6; 0.5 uM,1.2
same,"Firefly F4, cmpd/DMSO (mean)",NR2F6; 2 uM,2.0
same,"Firefly F4, cmpd/DMSO (mean)",NR2F6; 10 uM,4.3
same,"Firefly F4, cmpd/DMSO (mean)",NR2F6; 40 uM,3.4
same,"F4, Firefly/Renilla for S/B(F4) > 3","NR2F6; 10% FBS, 40 uM",2.6
same,"Firefly, F4/pGL4 for S/B(F4) > 3","NR2F6; 10% FBS, 40 uM",1.8
same,"Firefly, F4, 1% FBS, cmpd/DMSO (mean)",NR2F6; 0.5 uM,0.9
same,"Firefly, F4, 1% FBS, cmpd/DMSO (mean)",NR2F6; 2 uM,1.1
same,"Firefly, F4, 1% FBS, cmpd/DMSO (mean)",NR2F6; 10 uM,2.9
same,"Firefly, F4, 1% FBS, cmpd/DMSO (mean)",NR2F6; 40 uM,1.4
same,"Firefly, F4, 10% FBS, cmpd/DMSO (mean)","NR2F6; 10% FBS, 0.5 uM",1.1
same,"Firefly, F4, 10% FBS, cmpd/DMSO (mean)","NR2F6; 10% FBS, 2 uM",0.8
same,"Firefly, F4, 10% FBS, cmpd/DMSO (mean)","NR2F6; 10% FBS, 10 uM",1.9
same,"Firefly, F4, 10% FBS, cmpd/DMSO (mean)","NR2F6; 10% FBS, 40 uM",4.1
same,fold induction at 0.5 µM,HEK293 pGL4; [3],1.4
same,fold induction at 2 µM,HEK293 pGL4; [4],1.5
same,fold induction at 10 µM,HEK293 pGL4; [5],2.9
same,fold induction at 40 µM,HEK293 pGL4; [6],1.6
same,fold induction at 0.5 µM,HEK293 pGL4; [7],1.4
same,fold induction at 2 µM,HEK293 pGL4; [8],1.2
same,fold induction at 10 µM,HEK293 pGL4; [9],1.9
same,fold induction at 40 µM,HEK293 pGL4; [10],1.6
same,fold induction at 0.5 µM,HEK293 pGL4; [11],1
same,fold induction at 2 µM,HEK293 pGL4; [12],1
same,fold induction at 10 µM,HEK293 pGL4; [13],2
same,fold induction at 40 µM,HEK293 pGL4; [14],2.2
same,fold induction at 0.5 µM,Renilla; [15],1.1
same,fold induction at 2 µM,Renilla; [15],1.2
same,fold induction at 10 µM,Renilla; [15],1.4
same,fold induction at 40 µM,Renilla; [15],1.6
same,fold induction at 0.5 µM,Renilla; [16],1.1
same,fold induction at 2 µM,Renilla; [16],1.1
same,fold induction at 10 µM,Renilla; [16],1.6
same,fold induction at 40 µM,Renilla; [16],1.5
same,fold induction at 0.5 µM,Renilla; [17],1
same,fold induction at 2 µM,Renilla; [17],0.9
same,fold induction at 10 µM,Renilla; [17],1.1
same,fold induction at 40 µM,Renilla; [17],1.5
same,"Firefly LBD, cmpd/DMSO (mean)",NR2F6 LBD; 0.5 uM,1.1
same,"Firefly LBD, cmpd/DMSO (mean)",NR2F6 LBD; 2 uM,1.7
same,"Firefly LBD, cmpd/DMSO (mean)",NR2F6 LBD; 10 uM,2.7
same,"Firefly LBD, cmpd/DMSO (mean)",NR2F6 LBD; 40 uM,2.4
CC(=O)Nc1ccc(S(=O)(=O)[C@H]2CS(=O)(=O)C[C@@H]2NC2CC2)cc1 [Compound D133],"Firefly F4, cmpd/DMSO (mean)",NR2F6; 0.5 uM,1.0
same,"Firefly F4, cmpd/DMSO (mean)",NR2F6; 2 uM,1.4
same,"Firefly F4, cmpd/DMSO (mean)",NR2F6; 10 uM,1.8
same,"Firefly F4, cmpd/DMSO (mean)",NR2F6; 40 uM,1.3
same,"Firefly, F4, 1% FBS, cmpd/DMSO (mean)",NR2F6; 0.5 uM,0.8
same,"Firefly, F4, 1% FBS, cmpd/DMSO (mean)",NR2F6; 2 uM,0.8
same,"Firefly, F4, 1% FBS, cmpd/DMSO (mean)",NR2F6; 10 uM,1.2
same,"Firefly, F4, 1% FBS, cmpd/DMSO (mean)",NR2F6; 40 uM,0.9
same,"Firefly, F4, 10% FBS, cmpd/DMSO (mean)","NR2F6; 10% FBS, 0.5 uM",1.5
same,"Firefly, F4, 10% FBS, cmpd/DMSO (mean)","NR2F6; 10% FBS, 2 uM",0.9
same,"Firefly, F4, 10% FBS, cmpd/DMSO (mean)","NR2F6; 10% FBS, 10 uM",1.0
same,"Firefly, F4, 10% FBS, cmpd/DMSO (mean)","NR2F6; 10% FBS, 40 uM",1.0
same,fold induction at 0.5 µM,HEK293 pGL4; [3],1.1
same,fold induction at 2 µM,HEK293 pGL4; [4],1.1
same,fold induction at 10 µM,HEK293 pGL4; [5],1.9
same,fold induction at 40 µM,HEK293 pGL4; [6],1.1
same,fold induction at 0.5 µM,HEK293 pGL4; [7],1.3
same,fold induction at 2 µM,HEK293 pGL4; [8],1.1
same,fold induction at 10 µM,HEK293 pGL4; [9],1.3
same,fold induction at 40 µM,HEK293 pGL4; [10],1
same,fold induction at 0.5 µM,HEK293 pGL4; [11],0.9
same,fold induction at 2 µM,HEK293 pGL4; [12],0.9
same,fold induction at 10 µM,HEK293 pGL4; [13],1.3
same,fold induction at 40 µM,HEK293 pGL4; [14],1.2
same,fold induction at 0.5 µM,Renilla; [15],1
same,fold induction at 2 µM,Renilla; [15],1
same,fold induction at 10 µM,Renilla; [15],1.1
same,fold induction at 40 µM,Renilla; [15],1.1
same,fold induction at 0.5 µM,Renilla; [16],1
same,fold induction at 2 µM,Renilla; [16],1
same,fold induction at 10 µM,Renilla; [16],1
same,fold induction at 40 µM,Renilla; [16],1.1
same,fold induction at 0.5 µM,Renilla; [17],0.9
same,fold induction at 2 µM,Renilla; [17],0.9
same,fold induction at 10 µM,Renilla; [17],1
same,fold induction at 40 µM,Renilla; [17],1
same,"Firefly LBD, cmpd/DMSO (mean)",NR2F6 LBD; 0.5 uM,1.1
same,"Firefly LBD, cmpd/DMSO (mean)",NR2F6 LBD; 2 uM,1.1
same,"Firefly LBD, cmpd/DMSO (mean)",NR2F6 LBD; 10 uM,1.4
same,"Firefly LBD, cmpd/DMSO (mean)",NR2F6 LBD; 40 uM,1.1
